Data as given in EP4603105A1, “PHARMACEUTICAL COMPOSITION CONTAINING CYCLIC COMPOUND HAVING SELECTIVE KRAS INHIBITORY EFFECT AGAINST HRAS AND NRAS” (CHUGAI SEIYAKU KABUSHIKI KAISHA, priority 2022, dated 2024).
Where a SMILES comes first, the peptide text is derived from it. Bridges are numbered along the chain shown (N, C = ends). [ ]: non-standard residue; d: D form. hPhe(3-Cl-4-CF3) = N[C@@H](CCc1ccc(C(F)(F)F)c(Cl)c1)C(=O)O; NPrPhe(4-CF3) = CCCN[C@@H](Cc1ccc(C(F)(F)F)cc1)C(=O)O; NMeGly(cPent) = CN[C@H](C(=O)O)C1CCCC1; Pro(4,4-F2) = O=C(O)[C@@H]1CC(F)(F)CN1; Hyp = O=C(O)[C@@H]1C[C@@H](O)CN1; NMeL = CN[C@@H](CC(C)C)C(=O)O; NMeA = CN[C@@H](C)C(=O)O; Ac5c = NC1(C(=O)O)CCCC1; Aze = O=C(O)[C@@H]1CCN1; Ac4c = NC1(C(=O)O)CCC1; NEtG = CCNCC(=O)O; Sar = CNCC(=O)O

Experiments:
[1] = test system: human lung cancer strain NCI-H441; format: cell-based
Outline: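 Proliferation was scored by […] measured after the reagent was added to cultures kept at 37°C in 5% carbon dioxide.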

[2] = target: GDP-bound NRAS wild-type protein (Homo sapiens, UniProt P01111); experiment: Binding to NRAS by surface plasmon resonance (SPR), KD and KD ratio to KRAS; conditions: ratio of KD for GDP-bound NRAS wild-type protein to KD for KRAS
Sequence of GDP-bound NRAS wild-type protein (P01111 whole entry): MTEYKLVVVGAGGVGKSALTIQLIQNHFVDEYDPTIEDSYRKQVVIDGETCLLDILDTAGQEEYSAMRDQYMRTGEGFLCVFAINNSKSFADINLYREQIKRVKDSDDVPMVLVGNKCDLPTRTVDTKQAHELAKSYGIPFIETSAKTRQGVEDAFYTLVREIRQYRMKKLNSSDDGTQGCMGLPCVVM
Outline: (§1)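 Single-cycle kinetics on GDP-loaded biotin-Avi RAS captured to ~100–300 RU; 75 s ascending injections, 100 µL/min, 30°C. HBS pH 7.4 + 10 mM MgCl2/10 µM GDP/4% DMSO. 1:1 fit, KD.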

[3] = target: HRAS wild-type protein (Homo sapiens, UniProt P01112); experiment: Binding to HRAS by surface plasmon resonance (SPR), KD and KD ratio to KRAS; conditions: ratio of KD for HRAS wild-type protein to KD for KRAS
Sequence of HRAS wild-type protein (P01112 whole entry): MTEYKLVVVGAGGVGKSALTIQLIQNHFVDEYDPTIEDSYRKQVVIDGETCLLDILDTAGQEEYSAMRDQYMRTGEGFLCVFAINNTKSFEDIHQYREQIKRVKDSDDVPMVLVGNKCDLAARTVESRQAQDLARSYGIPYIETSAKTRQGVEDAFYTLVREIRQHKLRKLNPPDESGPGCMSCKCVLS
Outline: as §1

Compound	IC50 [1] [nM]	NRAS /KRAS [2]	HRAS /KRAS [3]
CCCN1C(=O)CN(C)C(=O)CN(CC)C(=O)[C@H]([C@@H](C)CC)NC(=O)[C@H](CC(C)C)N(C)C(=O)C[C@@H](C(=O)N(C)C)NC(=O)[C@H](C2CCCC2)N(C)C(=O)C2(CCC2)NC(=O)[C@@H]2C[C@@H](OCC)CN2C(=O)[C@H](CCc2ccc(C(F)(F)F)c(Cl)c2)NC(=O)CN(C)C(=O)[C@@H]1Cc1ccc(C(F)(F)F)cc1 [PP0372] ([NMeL]I[NEtG][Sar][NPrPhe(4-CF3)][Sar][hPhe(3-Cl-4-CF3)][Hyp](Et)[Ac4c][NMeGly(cPent)]D-NMe2; lactam N-11)	34.2	B (a compound having 3 or more and less than 10 is denoted as B)	B (a compound having 3 or more and less than 10 is denoted as B)
CCCN1C(=O)CN(C)C(=O)[C@@H]2CCN2C(=O)[C@H]([C@@H](C)CC)NC(=O)[C@H](CC(C)C)N(C)C(=O)C[C@@H](C(=O)N(C)C)NC(=O)[C@H](C2CCCC2)N(C)C(=O)C2(CCCC2)NC(=O)[C@@H]2CCCN2C(=O)[C@H](CCc2ccc(C(F)(F)F)c(Cl)c2)NC(=O)CN(C)C(=O)[C@@H]1Cc1ccc(C(F)(F)F)cc1 [PP0373] ([NMeL]I[Aze][Sar][NPrPhe(4-CF3)][Sar][hPhe(3-Cl-4-CF3)]P[Ac5c][NMeGly(cPent)]D-NMe2; lactam N-11)	152	B (a compound having 3 or more and less than 10 is denoted as B)	B (a compound having 3 or more and less than 10 is denoted as B)
CCCN1C(=O)CN(C)C(=O)[C@@H]2CCN2C(=O)[C@H]([C@@H](C)CC)NC(=O)[C@H](CC(C)C)N(C)C(=O)C[C@@H](C(=O)N(C)C)NC(=O)[C@H](C2CCCC2)N(C)C(=O)C2(CCC2)NC(=O)[C@@H]2CCCN2C(=O)[C@H](CCc2ccc(C(F)(F)F)c(Cl)c2)NC(=O)CN(C)C(=O)[C@@H]1Cc1ccc(C(F)(F)F)cc1 [PP0374] ([NMeL]I[Aze][Sar][NPrPhe(4-CF3)][Sar][hPhe(3-Cl-4-CF3)]P[Ac4c][NMeGly(cPent)]D-NMe2; lactam N-11)	142	B (a compound having 3 or more and less than 10 is denoted as B)	B (a compound having 3 or more and less than 10 is denoted as B)
CCCN1C(=O)CN(C)C(=O)[C@@H]2CCN2C(=O)[C@H]([C@@H](C)CC)NC(=O)[C@H](CC(C)C)N(C)C(=O)C[C@@H](C(=O)N(C)C)NC(=O)[C@H](C2CCCC2)N(C)C(=O)C2(CCCC2)NC(=O)[C@@H]2CC(F)(F)CN2C(=O)[C@H](CCc2ccc(C(F)(F)F)c(Cl)c2)NC(=O)CN(C)C(=O)[C@@H]1Cc1ccc(C(F)(F)F)cc1 [PP0375] ([NMeL]I[Aze][Sar][NPrPhe(4-CF3)][Sar][hPhe(3-Cl-4-CF3)][Pro(4,4-F2)][Ac5c][NMeGly(cPent)]D-NMe2; lactam N-11)	57.1	B (a compound having 3 or more and less than 10 is denoted as B)	B (a compound having 3 or more and less than 10 is denoted as B)
CCCN1C(=O)CN(C)C(=O)[C@@H]2CCN2C(=O)[C@H]([C@@H](C)CC)NC(=O)[C@H](CC(C)C)N(C)C(=O)C[C@@H](C(=O)N(C)C)NC(=O)[C@H](C2CCCC2)N(C)C(=O)C2(CCCC2)NC(=O)[C@@H]2C[C@@H](OCC)CN2C(=O)[C@H](CCc2ccc(C(F)(F)F)c(Cl)c2)NC(=O)CN(C)C(=O)[C@@H]1Cc1ccc(C(F)(F)F)cc1 [PP0377] ([NMeL]I[Aze][Sar][NPrPhe(4-CF3)][Sar][hPhe(3-Cl-4-CF3)][Hyp](Et)[Ac5c][NMeGly(cPent)]D-NMe2; lactam N-11)	33.4	B (a compound having 3 or more and less than 10 is denoted as B)	C (A compound having a KD ratio of 0.1 or more and less than 3 is denoted as C)
CCCN1C(=O)[C@@H]2CCN2C(=O)[C@H](C)N(C)C(=O)[C@H]([C@@H](C)CC)NC(=O)[C@H](CC(C)C)N(C)C(=O)C[C@@H](C(=O)N(C)C)NC(=O)[C@H](C2CCCC2)N(C)C(=O)C2(CCCC2)NC(=O)[C@@H]2CCCN2C(=O)[C@H](CCc2ccc(C(F)(F)F)c(Cl)c2)NC(=O)CN(C)C(=O)[C@@H]1Cc1ccc(C(F)(F)F)cc1 [PP0379] ([NMeL]I[NMeA][Aze][NPrPhe(4-CF3)][Sar][hPhe(3-Cl-4-CF3)]P[Ac5c][NMeGly(cPent)]D-NMe2; lactam N-11)	4.4	C (A compound having a KD ratio of 0.1 or more and less than 3 is denoted as C)	B (a compound having 3 or more and less than 10 is denoted as B)
CCCN1C(=O)[C@@H]2CCN2C(=O)[C@H](C)N(C)C(=O)[C@H]([C@@H](C)CC)NC(=O)[C@H](CC(C)C)N(C)C(=O)C[C@@H](C(=O)N(C)C)NC(=O)[C@H](C2CCCC2)N(C)C(=O)C2(CCC2)NC(=O)[C@@H]2CCCN2C(=O)[C@H](CCc2ccc(C(F)(F)F)c(Cl)c2)NC(=O)CN(C)C(=O)[C@@H]1Cc1ccc(C(F)(F)F)cc1 [PP0380] ([NMeL]I[NMeA][Aze][NPrPhe(4-CF3)][Sar][hPhe(3-Cl-4-CF3)]P[Ac4c][NMeGly(cPent)]D-NMe2; lactam N-11)	16.4	C (A compound having a KD ratio of 0.1 or more and less than 3 is denoted as C)	B (a compound having 3 or more and less than 10 is denoted as B)
CCCN1C(=O)[C@@H]2CCN2C(=O)[C@H](C)N(C)C(=O)[C@H]([C@@H](C)CC)NC(=O)[C@H](CC(C)C)N(C)C(=O)C[C@@H](C(=O)N(C)C)NC(=O)[C@H](C2CCCC2)N(C)C(=O)C2(CCCC2)NC(=O)[C@@H]2CC(F)(F)CN2C(=O)[C@H](CCc2ccc(C(F)(F)F)c(Cl)c2)NC(=O)CN(C)C(=O)[C@@H]1Cc1ccc(C(F)(F)F)cc1 [PP0381] ([NMeL]I[NMeA][Aze][NPrPhe(4-CF3)][Sar][hPhe(3-Cl-4-CF3)][Pro(4,4-F2)][Ac5c][NMeGly(cPent)]D-NMe2; lactam N-11)	11.1	C (A compound having a KD ratio of 0.1 or more and less than 3 is denoted as C)	B (a compound having 3 or more and less than 10 is denoted as B)
CCCN1C(=O)[C@@H]2CCN2C(=O)[C@H](C)N(C)C(=O)[C@H]([C@@H](C)CC)NC(=O)[C@H](CC(C)C)N(C)C(=O)C[C@@H](C(=O)N(C)C)NC(=O)[C@H](C2CCCC2)N(C)C(=O)C2(CCC2)NC(=O)[C@@H]2CC(F)(F)CN2C(=O)[C@H](CCc2ccc(C(F)(F)F)c(Cl)c2)NC(=O)CN(C)C(=O)[C@@H]1Cc1ccc(C(F)(F)F)cc1 [PP0382] ([NMeL]I[NMeA][Aze][NPrPhe(4-CF3)][Sar][hPhe(3-Cl-4-CF3)][Pro(4,4-F2)][Ac4c][NMeGly(cPent)]D-NMe2; lactam N-11)	12.1	C (A compound having a KD ratio of 0.1 or more and less than 3 is denoted as C)	B (a compound having 3 or more and less than 10 is denoted as B)
CCCN1C(=O)[C@@H]2CCN2C(=O)[C@H](C)N(C)C(=O)[C@H]([C@@H](C)CC)NC(=O)[C@H](CC(C)C)N(C)C(=O)C[C@@H](C(=O)N(C)C)NC(=O)[C@H](C2CCCC2)N(C)C(=O)C2(CCCC2)NC(=O)[C@@H]2C[C@@H](OCC)CN2C(=O)[C@H](CCc2ccc(C(F)(F)F)c(Cl)c2)NC(=O)CN(C)C(=O)[C@@H]1Cc1ccc(C(F)(F)F)cc1 [PP0383] ([NMeL]I[NMeA][Aze][NPrPhe(4-CF3)][Sar][hPhe(3-Cl-4-CF3)][Hyp](Et)[Ac5c][NMeGly(cPent)]D-NMe2; lactam N-11)	2.6	C (A compound having a KD ratio of 0.1 or more and less than 3 is denoted as C)	B (a compound having 3 or more and less than 10 is denoted as B)
CCCN1C(=O)[C@@H]2CCN2C(=O)[C@H](C)N(C)C(=O)[C@H]([C@@H](C)CC)NC(=O)[C@H](CC(C)C)N(C)C(=O)C[C@@H](C(=O)N(C)C)NC(=O)[C@H](C2CCCC2)N(C)C(=O)C2(CCC2)NC(=O)[C@@H]2C[C@@H](OCC)CN2C(=O)[C@H](CCc2ccc(C(F)(F)F)c(Cl)c2)NC(=O)CN(C)C(=O)[C@@H]1Cc1ccc(C(F)(F)F)cc1 [PP0384] ([NMeL]I[NMeA][Aze][NPrPhe(4-CF3)][Sar][hPhe(3-Cl-4-CF3)][Hyp](Et)[Ac4c][NMeGly(cPent)]D-NMe2; lactam N-11)	7	C (A compound having a KD ratio of 0.1 or more and less than 3 is denoted as C)	B (a compound having 3 or more and less than 10 is denoted as B)
CCCN1C(=O)[C@@H]2CCN2C(=O)CN(C)C(=O)[C@H]([C@@H](C)CC)NC(=O)[C@H](CC(C)C)N(C)C(=O)C[C@@H](C(=O)N(C)C)NC(=O)[C@H](C2CCCC2)N(C)C(=O)C2(CCC2)NC(=O)[C@@H]2CCCN2C(=O)[C@H](CCc2ccc(C(F)(F)F)c(Cl)c2)NC(=O)CN(C)C(=O)[C@@H]1Cc1ccc(C(F)(F)F)cc1 [PP0386] ([NMeL]I[Sar][Aze][NPrPhe(4-CF3)][Sar][hPhe(3-Cl-4-CF3)]P[Ac4c][NMeGly(cPent)]D-NMe2; lactam N-11)	29.6	C (A compound having a KD ratio of 0.1 or more and less than 3 is denoted as C)	B (a compound having 3 or more and less than 10 is denoted as B)
